Measurements reported in patent US20170267750A1, “Method of Treating Ovarian and Renal Cancer Using Antibodies Against T Cell Immunoglobulin Domain and Mucin Domain 1 (TIM-1) Antigen” (Celldex Therapeutics, Inc., priority 2005, published 2017).
Counter-ions that a name gives are not always drawn.

Columns and labels:
[1] = system: IGROV1 ovarian carcinoma xenografts; assay: Human ovarian carcinoma xenograft model (IGROV1) in athymic mice; assay type: in vivo, athymic mice (CD-1 nu/nu females)
Description: An in vivo study was performed to assess the potency and therapeutic efficacy of the antibody-drug conjugate, CR014-vcMMAE, against an established human IGROV-1 ovarian xenograft in athymic mice.
Test Animals: Five- to 6-week old athymic mice (CD-1 nu/nu females), used for human tumor xenografts, were obtained from Charles Rivers Laboratories (Wilmington, Del.). Animals were housed in specific pathogen-free conditions, according to the guidelines of the Association for Assessment and Accreditation of Laboratory Animal Care International (AAALAC International). Test animals were provided pelleted food and water ad libitum and kept in a room with conditioned ventilation (HVAC), temperature (22°±2° C.), relative humidity (55%±15%), and photoperiod (12 hr). All studies were carried out with approved institutional animal care and use protocols. Contract Research Organizations. Experiments in vivo were conducted at Southern Research Institute (Birmingham, Ala.).
Human Ovarian Carcinoma Xenograft Model. The tumor inhibitory activity of the CR014-MMAE immunoconjugate was measured in an anti-tumor xenograft model using athymic mice, according to published methods (Geran R I, Greenberg N H, Macdonald M M, Schumacher A M and Abbott B J (1972) Protocols for screening chemical agents and natural products against animal tumors and other biological systems. Cancer Chemother Rep 3:1-104).
Briefly, test animals were implanted subcutaneously by trocar with small fragments of the IGROV1 carcinoma (30-60 mg) excised from athymic mouse tumor donors. […]
The IGROV1 ovarian carcinoma was derived from a person in 1985, and was obtained from the American Type Culture Collection. The effects of treatment were monitored by repetitive tumor measurements across 2 diameters with Vernier calipers; tumor size (in mg) was calculated using a standard formula, (W^2×L)/2, assuming a specific gravity of 1.0. Tumor size and body weights were assessed twice weekly. […]

BT549 cells = assay: Antibody mediated toxin killing clonogenic assay (saporin conjugated secondary antibody), BT549; assay type: cell-based, human; conditions: EGFR mAb at 100 ng/mL with saporin secondary
Description: (§1) A clonogenic assay as described in the art was used to determine whether primary antibodies can induce cancer cell death when used in combination with a saporin toxin conjugated secondary antibody reagent. Kohls and Lappi, Biotechniques, 28(1):162-5 (2000).
(§2) ACHN and BT549 cells were plated onto flat bottom tissue culture plates at a density of 3000 cells per well. On day 2 or when cells reached ˜25% confluency, 100 ng/well secondary mAb-toxin (goat anti-human IgG-saporin; Advanced Targeting Systems; HUM-ZAP; cat. no. IT-22) was added. A positive control anti-EGFR antibody, mAb 2.7.2, mAb 2.59.2, or an isotype control mAb was then added to each well at the desired concentration (typically 1 to 500 ng/mL). On day 5, the cells were trypsinized, transferred to a 150 mm tissue culture dish, and incubated at 37° C. Plates were examined daily. On days 10-12, all plates were Giemsa stained and colonies on the plates were counted. Plating efficiency was determined by comparing the number of cells prior to transfer to 150 mm plates to the number of colonies that eventually formed.
(§3) The percent viability in antigen positive ACHN and antigen negative BT549 cell lines are presented in FIG. 4 and FIG. 5 respectively.

ACHN cells = assay: Antibody mediated toxin killing clonogenic assay (saporin conjugated secondary antibody), ACHN; assay type: cell-based, human; conditions: EGFR mAb at 100 ng/mL with saporin secondary
Description: as §1, §2, §3

How did the “re-growth of tumors during the observation period” value ([1]; 101 days after the commencement of treatment) turn out when `CC(=O)O[C@H]1C(=O)[C@@]2(C)[C@H]([C@H](OC(=O)c3ccccc3)[C@]3(O)C[C@H](OC(=O)[C@H](O)[C@@H](NC(=O)c4ccccc4)c4ccccc4)C(C)=C1C3(C)C)[C@]1(OC(C)=O)CO[C@@H]1C[C@@H]2O` [Paclitaxel, paclitaxel] was run?
The value was “not observed”.

And the anti-tumor effect ([1]; paclitaxel i.v., 24 mg/kg, q2d×4 (MTD))?
The anti-tumor effect was “significant tumor growth inhibition”.

With `CC[C@]1(O)C[C@@H]2CN(CCc3c([nH]c4ccccc34)[C@@](C(=O)OC)(c3cc4c(cc3OC)N(C)[C@H]3[C@@](O)(C(=O)OC)[C@H](OC(C)=O)[C@]5(CC)C=CCN6CC[C@]43[C@@H]65)C2)C1` [Vinblastine, vinblastine sulfate] as the compound, how does the anti-tumor effect ([1]; vinblastine sulfate i.v., 1.7 mg/kg, q4d×4 (MTD)) read?
The anti-tumor effect was “very slight, but not significant, anti-tumor effect”.

With `O=c1[nH]cc(F)c(=O)[nH]1` [5-FU, 5 Fluorouracil, reference compound] as the compound, how does the “killing in clonogenic assay (controls)” value (BT549 cells) read?
Its value is “almost complete killing”.

And the “killing in clonogenic assay (controls)” value (ACHN cells)?
The value was “almost complete killing”.
